Laboratory results from patent US10654814B2, “Bicyclic hydroxamic acids useful as inhibitors of mammalian histone deacetylase activity” (KANCERA AB, priority 2015, dated 2020).
Where two headings read alike, the source gives them in different places.

Columns and labels:
[1] = molecular target: HDAC8 (Homo sapiens (Human), UniProt Q9BY41); test: HDAC8 in vitro enzymatic assay (fluorescence); format: biochemical; conditions: Table 4 selectivity profiling
Protocol: (§1) Biological Tests Method for Measurement of Enzymatic Activity of HDACs Materials & Methods
(§2) All Examples were tested in HDAC1,2,3,6 and 8 in vitro enzymatic assays. The assay principle is well known (Hauser et al. 2009, Bradner et al. 2010) and all necessary reagents like enzymes, substrates, developer and reference compounds are commercially available (see e.g. BPS Biosciences http://www.bpsbioscience.com/). Stock solutions (10 mM in DMSO) of compounds were serially diluted 1:3 in 11 concentrations with a top concentration of 200 μM for HDAC1,2,3 and 2 μM for HDAC6 and HDAC8. The enzymatic reactions were conducted in a mixture containing assay buffer, bovine serum albumin, HDAC substrate, and a test compound. After enzymatic reaction, developer was added and after an additional incubation time, fluorescence intensity was measured at an excitation wavelength of 360 nm and an emission wavelength of 460 nm. All experiments were performed in duplicate.

[2] = molecular target: HDAC3 (Homo sapiens (Human), UniProt O15379); test: HDAC3 in vitro enzymatic assay (fluorescence); format: biochemical; conditions: Table 4 selectivity profiling
Protocol: as §1, §2

[3] = molecular target: HDAC6 (Homo sapiens (Human), UniProt Q9UBN7); test: HDAC6 in vitro enzymatic assay (fluorescence); format: biochemical
Method in brief: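 Fluorogenic HDAC substrate reactions contained assay buffer, BSA and compound, followed by developer. Fluorescence was read at ex 360/em 460 nm. Compounds were tested as 11-point 1:3 dilutions from a top of 200 μM for HDAC1, 2 and 3, and from 2 μM for HDAC6, in duplicate.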

[4] = system: multiple myeloma cell line OPM-2; test: Annexin V apoptosis assay (flow cytometry), OPM-2; format: cell-based; conditions: 72 hours, relative to 0.2% DMSO
Excerpt: (§3) Method for Measurement of Apoptosis
(§4) The Annexin A5 (or Annexin V) affinity assay provides a method to quantify the number of cells undergoing apoptosis. The assay uses the protein annexin A5 conjugated to fluorescein (FITC Annexin V) and the fluorescent dye propidium iodide (PI) to label early apoptotic (annexin V positive, PI negative) and necrotic/dead cells (annexin V positive, PI positive) quantified by flow cytometry. The annexin A5 protein binds to membrane surfaces containing negatively charged phoshpolipids (phosphatidylserine) which are exposed by apoptotic and dead cells, but not by normal cells. PI binds to nucleic acids in cells which have completely lost the integrity of their plasma membrane, i.e. necrotic cells.
(§5) Standard Annexin V assay protocol was followed (see e.g. http://www.biolegend.com/pop_pdf.php?id=5161 and application references therein). 10,000 cells of each cell line were cultured in 400 μl of medium in 48 well plates. Compounds from 10 mM DMSO stock solutions were added to cells (DMSO content was 0.2%) and incubated for 48 or 72 hours followed by addition of FITC-Annexin V (BioLegend) and PI staining solution (BD Biosciences). The cells were analyzed by flow cytometry, at least 4,000 single cells were analyzed. Compounds were tested either individually at four different concentrations (1, 2.5, 5 and 10 μM) or in combination with 1 μM dexamethasone.
(§6) Annexin V assay results for one compound of the invention (Example 1) with and without 1 μM dexamethasone for the multiple myeloma cell lines OPM-2 and U266 are given in Table 6. In Table 6, the % apoptosis values with compound(s) present are relative to the absence of compounds (only 0.2% DMSO present).

[5] = molecular target: HDAC1 (Homo sapiens (Human), UniProt Q13547); test: HDAC1 in vitro enzymatic assay (fluorescence); format: biochemical; conditions: Table 4 selectivity profiling
Protocol: as §1, §2

[6] = system: PBMCs (peripheral blood mononuclear cells) from healthy donors; test: CellTiter-Blue cell viability assay, healthy PBMC; format: cell-based; conditions: 72 hours of treatment
Protocol: (§7) Method for Measurement of Cell Viability
(§8) The CellTiter-Blue® Cell Viability Assay (Promega) provides a homogeneous, fluorometric method for estimating the number of viable cells present in multi-well plates. The assay uses the indicator dye resazurin to measure the metabolic capacity of cells. Viable cells retain the ability to reduce resazurin into resorufin, which is highly fluorescent.
(§9) Stock solutions (10 mM in DMSO) of compounds were serially diluted 1:2 in 11 concentrations. 50 nL/well (10 mM compound stock in DMSO) was acoustically dispensed in 384-well assay plates with an acoustic dispenser (EDC Biosystems ATS-100AV). Final starting concentration in the assay was 20 μM (0.2% DMSO) for test compounds. The following cell-lines (and origin) have been primarily used: PaCa2 (pancreatic), U266 (multiple myeloma), AMO-1 (plasmacytoma), and MDA-MB-231 (breast adenocarcinoma). PBMCs (peripheral blood mononuclear cells) from healthy donors were used as control cells. Cells were seeded in assay plates (384-well black/clear, Greiner #781091) pre-dispensed with compounds, 25 μL/well, and cultured for 72 hours. After 72 hours, Celltiter Blue reagent (Promega # G8081) was diluted 1:10 with PBS and then added to wells (5 μL/well). The plates were incubated for 2 hours following addition of reagent. The plates were read in an EnVision fluorescence reader (PerkinElmer) with Ex544 nm/Em590 nm. Results were calculated as % cell viability compared to background (cells treated with 0.2% DMSO).

[7] = system: multiple myeloma cell line U266; test: Annexin V apoptosis assay (flow cytometry), U266; format: cell-based; conditions: 72 hours, relative to 0.2% DMSO
Excerpt: as §3, §4, §5, §6

[8] = system: MDA-MB-231 (breast adenocarcinoma) cells; test: CellTiter-Blue cell viability assay, MDA-MB-231; format: cell-based; conditions: Homo sapiens, 72 hours of treatment
Protocol: as §7, §8, §9

[9] = system: PaCa2 (pancreatic) cells; test: CellTiter-Blue cell viability assay, PaCa2; format: cell-based; conditions: PaCa-2; 72 hours of treatment
Protocol: as §7, §8, §9

[10] = system: AMO-1 (plasmacytoma) cells; test: CellTiter-Blue cell viability assay, AMO-1; format: cell-based; conditions: Homo sapiens, AMO1; 72 hours of treatment
Protocol: as §7, §8, §9

[11] = system: U266 (multiple myeloma) cells; test: CellTiter-Blue cell viability assay, U266; format: cell-based; conditions: Homo sapiens, U-266; 72 hours of treatment
Protocol: as §7, §8, §9

[12] = molecular target: HDAC2 (Homo sapiens (Human), UniProt Q92769); test: HDAC2 in vitro enzymatic assay (fluorescence); format: biochemical; conditions: Table 4 selectivity profiling
Protocol: as §1, §2

[13] = Table 3, read-out: IC50 (nM) for inhibition of HDAC6
[14] = Table 4 selectivity profiling, read-out: IC50 (nM) HDAC6

Sequence of HDAC3 (O15379 whole entry): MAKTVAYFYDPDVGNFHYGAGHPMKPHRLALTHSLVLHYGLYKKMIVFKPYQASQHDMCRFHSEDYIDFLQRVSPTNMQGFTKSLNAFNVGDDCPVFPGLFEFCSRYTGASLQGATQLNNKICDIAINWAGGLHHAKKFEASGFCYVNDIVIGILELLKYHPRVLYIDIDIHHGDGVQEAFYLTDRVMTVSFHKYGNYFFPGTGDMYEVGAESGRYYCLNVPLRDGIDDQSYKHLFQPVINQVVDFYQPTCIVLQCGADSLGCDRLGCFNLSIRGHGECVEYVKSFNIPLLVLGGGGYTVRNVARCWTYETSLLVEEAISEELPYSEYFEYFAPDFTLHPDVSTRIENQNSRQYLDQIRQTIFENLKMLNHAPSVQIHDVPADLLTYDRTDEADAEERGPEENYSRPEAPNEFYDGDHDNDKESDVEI
Sequence of HDAC3 (Q9Y618 395-489 partner): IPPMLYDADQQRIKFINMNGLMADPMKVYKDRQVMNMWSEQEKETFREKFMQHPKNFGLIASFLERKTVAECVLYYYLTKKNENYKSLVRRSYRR
Sequence of HDAC8 (Q9BY41 whole entry): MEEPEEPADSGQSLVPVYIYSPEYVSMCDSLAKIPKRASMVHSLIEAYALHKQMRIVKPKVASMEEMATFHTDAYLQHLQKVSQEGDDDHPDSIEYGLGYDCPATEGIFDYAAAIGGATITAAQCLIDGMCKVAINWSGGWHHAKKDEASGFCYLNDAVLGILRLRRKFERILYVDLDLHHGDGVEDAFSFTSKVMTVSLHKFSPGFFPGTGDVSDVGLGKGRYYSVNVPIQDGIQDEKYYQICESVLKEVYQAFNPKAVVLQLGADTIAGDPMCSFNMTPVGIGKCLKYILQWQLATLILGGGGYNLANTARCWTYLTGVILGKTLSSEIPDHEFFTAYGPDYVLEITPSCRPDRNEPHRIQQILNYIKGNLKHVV
Sequence of HDAC1 (Q13547 whole entry): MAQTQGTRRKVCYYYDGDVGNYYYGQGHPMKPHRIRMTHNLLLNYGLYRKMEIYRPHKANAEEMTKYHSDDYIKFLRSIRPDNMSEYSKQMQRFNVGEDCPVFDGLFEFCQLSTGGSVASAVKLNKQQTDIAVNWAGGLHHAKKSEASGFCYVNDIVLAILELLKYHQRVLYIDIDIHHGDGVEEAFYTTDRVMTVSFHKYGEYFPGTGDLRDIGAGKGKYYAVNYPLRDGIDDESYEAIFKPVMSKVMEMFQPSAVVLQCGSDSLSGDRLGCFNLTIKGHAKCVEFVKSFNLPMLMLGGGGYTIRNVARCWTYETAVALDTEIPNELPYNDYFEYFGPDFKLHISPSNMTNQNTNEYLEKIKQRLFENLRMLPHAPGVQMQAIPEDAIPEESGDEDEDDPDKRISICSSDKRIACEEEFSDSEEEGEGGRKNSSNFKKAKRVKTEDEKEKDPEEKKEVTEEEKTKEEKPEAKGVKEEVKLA
Sequence of HDAC6 (Q9UBN7 whole entry): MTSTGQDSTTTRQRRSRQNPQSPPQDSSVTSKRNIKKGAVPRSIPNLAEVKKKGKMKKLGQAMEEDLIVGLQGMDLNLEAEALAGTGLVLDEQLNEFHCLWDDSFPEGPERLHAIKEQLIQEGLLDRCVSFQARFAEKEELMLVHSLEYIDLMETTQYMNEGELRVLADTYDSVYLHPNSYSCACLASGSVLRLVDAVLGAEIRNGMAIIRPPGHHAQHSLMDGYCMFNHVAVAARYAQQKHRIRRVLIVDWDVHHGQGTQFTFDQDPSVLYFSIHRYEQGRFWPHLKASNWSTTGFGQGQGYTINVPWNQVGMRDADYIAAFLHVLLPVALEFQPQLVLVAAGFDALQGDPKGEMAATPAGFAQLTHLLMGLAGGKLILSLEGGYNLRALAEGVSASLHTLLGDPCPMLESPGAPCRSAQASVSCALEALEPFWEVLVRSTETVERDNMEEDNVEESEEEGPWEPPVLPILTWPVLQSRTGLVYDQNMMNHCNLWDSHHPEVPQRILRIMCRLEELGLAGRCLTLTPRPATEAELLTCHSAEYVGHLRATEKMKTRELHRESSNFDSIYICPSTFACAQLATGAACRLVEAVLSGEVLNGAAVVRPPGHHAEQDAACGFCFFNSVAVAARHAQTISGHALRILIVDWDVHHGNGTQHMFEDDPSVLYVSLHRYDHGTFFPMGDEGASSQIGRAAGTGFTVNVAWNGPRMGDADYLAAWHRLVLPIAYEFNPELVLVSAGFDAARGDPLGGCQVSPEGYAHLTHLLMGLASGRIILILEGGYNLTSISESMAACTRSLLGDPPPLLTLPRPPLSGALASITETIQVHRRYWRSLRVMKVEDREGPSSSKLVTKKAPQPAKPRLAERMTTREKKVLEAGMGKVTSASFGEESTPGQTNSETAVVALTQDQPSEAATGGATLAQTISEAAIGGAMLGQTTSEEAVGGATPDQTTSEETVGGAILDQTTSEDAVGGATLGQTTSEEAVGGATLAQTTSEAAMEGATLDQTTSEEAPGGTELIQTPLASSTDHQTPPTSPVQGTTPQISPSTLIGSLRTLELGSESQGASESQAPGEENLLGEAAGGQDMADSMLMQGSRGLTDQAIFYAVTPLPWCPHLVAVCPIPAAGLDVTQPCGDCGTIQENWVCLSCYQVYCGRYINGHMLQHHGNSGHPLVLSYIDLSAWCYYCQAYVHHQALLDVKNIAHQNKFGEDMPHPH
Sequence of HDAC2 (Q92769 whole entry): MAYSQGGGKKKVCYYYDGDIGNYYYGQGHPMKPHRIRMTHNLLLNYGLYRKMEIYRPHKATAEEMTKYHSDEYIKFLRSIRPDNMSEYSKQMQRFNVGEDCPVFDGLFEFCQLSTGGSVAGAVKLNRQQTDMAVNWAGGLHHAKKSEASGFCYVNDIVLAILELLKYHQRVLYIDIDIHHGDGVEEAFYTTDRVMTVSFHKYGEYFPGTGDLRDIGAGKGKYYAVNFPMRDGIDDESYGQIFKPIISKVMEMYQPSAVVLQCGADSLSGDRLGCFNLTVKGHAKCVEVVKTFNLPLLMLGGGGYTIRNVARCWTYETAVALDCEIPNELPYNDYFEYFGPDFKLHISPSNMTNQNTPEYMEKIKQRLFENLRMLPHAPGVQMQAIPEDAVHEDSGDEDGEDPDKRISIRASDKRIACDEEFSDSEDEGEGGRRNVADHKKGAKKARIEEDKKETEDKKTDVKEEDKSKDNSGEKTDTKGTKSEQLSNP

SMILES | IC50 [1] | IC50 [2] | IC50 [3, 13] | IC50 [3, 14] | IC50 [5] | IC50 [6] | IC50 [8] | IC50 [9] | IC50 [10] | IC50 [11] | IC50 [12] | other results
CC(C)c1ccc(-c2nc3cc(C(=O)NO)ccc3o2)cc1 [Example 1, N-Hydroxy-2-[4-(1-methylethyl)phenyl]-1,3-benzoxazole-5-carboxamide] | 1200 nM | 1700 nM | 26 nM | 26 nM | 4000 nM | > 20 µM | 0.65 µM | 0.98 µM | 0.39 µM | 0.62 µM | 13000 nM | % apoptosis OPM-2 ([4]; 1 μM Ex. 1 alone): 3%; % apoptosis OPM-2 ([4]; 2.5 μM Ex. 1 alone): 37%; % apoptosis OPM-2 ([4]; 5 μM Ex. 1 alone): 38%; % apoptosis OPM-2 ([4]; 10 μM Ex. 1 alone): 59%; % apoptosis U266 ([7]; 1 μM Ex. 1 alone): 30%; % apoptosis U266 ([7]; 2.5 μM Ex. 1 alone): 59%; % apoptosis U266 ([7]; 5 μM Ex. 1 alone): 43%; % apoptosis U266 ([7]; 10 μM Ex. 1 alone): 88%
COc1ncccc1-c1ccc(-c2nc3cc(C(=O)NO)ccc3o2)cc1 [Example 28, N-hydroxy-2-[4-(2-methoxypyridin-3-yl)phenyl]-1,3-benzoxazole-5-carboxamide] | 700 nM | 1800 nM |  | 28 nM | 5600 nM | > 20 µM | 0.75 µM | 1 µM | 0.38 µM | 0.62 µM | 28000 nM | 
C[C@@H]1C[C@H]2[C@@H]3CCC4=CC(=O)C=C[C@]4(C)[C@@]3(F)[C@@H](O)C[C@]2(C)[C@@]1(O)C(=O)CO [DEX, dexamethasone, reference compound] |  |  |  |  |  |  |  |  |  |  |  | % apoptosis OPM-2 ([4]; 1 μM DEX alone): 35%; % apoptosis U266 ([7]; 1 μM DEX alone): 42%
CC(C)(C)c1ccc(-c2nc3cc(C(=O)NO)ccc3s2)cc1 [Example 77, 2-(4-tert-butylphenyl)-N-hydroxy-1,3-benzothiazole-5-carboxamide] | 410 nM | 930 nM |  | 22 nM | 1800 nM | > 20 µM | 1.8 µM | 1.4 µM | 0.34 µM | 0.48 µM | 9400 nM | 
CC(C)(C)c1ccc(-c2nc3cc(C(=O)NO)ccc3o2)cc1 [Example 4, 2-(4-tert-butylphenyl)-N-hydroxy-1,3-benzoxazole-5-carboxamide] | 1000 nM | 410 nM | 5 nM | 5 nM | 1100 nM | > 20 µM | 0.81 µM | 0.75 µM | 0.38 µM | 0.49 µM | 19000 nM | 
CC(C)c1ccc(-c2nc3cc(C(=O)NO)ccc3s2)cc1 [Example 75, N-Hydroxy-2-[4-(1-methylethyl)phenyl]-1,3-benzothiazole-5-carboxamide] | 28 nM | 500 nM | 13 nM | 3 nM | 900 nM | > 20 µM | 0.4 µM | 1.3 µM | 0.41 µM | 0.49 µM | 5500 nM | 
O=C(NO)c1ccc2oc(-c3ccc(OC(F)(F)F)cc3)nc2c1 [Example 9, N-hydroxy-2-[4-(trifluoromethoxy)phenyl]-1,3-benzoxazole-5-carboxamide] | 800 nM | 1700 nM |  | 38 nM | 6000 nM | > 20 µM | 1.4 µM | 1.9 µM | 0.9 µM | 0.91 µM | 76000 nM | 
CC(C)c1ccc(Nc2nc3cc(C(=O)NO)ccc3o2)cc1 [Example 43, N-hydroxy-2-{[4-(1-methylethyl)phenyl]amino}-1,3-benzoxazole-5-carboxamide] | 200 nM | 3500 nM |  | 51 nM | 5100 nM | > 20 µM | 0.37 µM | 1.7 µM | 0.68 µM | 1.1 µM | > 200000 nM | 
